The text below walks through data of patent publication US20100009970A1, “COMPOSITIONS AND METHODS FOR TREATMENT OF VIRAL DISEASES” (Combinatorx (Singapore) Pte. Ltd., priority 2008, published 2010).

One may read the IC50 as the midpoint of a concentration-inhibition curve. The term IC90 denotes the concentration at which the effect reaches the 90% level. High values mean a need for much substance, low ones an effect from little substance.

Read-outs that look alike come from different tables or passages of the source.

Series [1] relates to Huh7 cells expressing a subgenomic RNA replicon of Con1 (genotype 1b) sequence origin. The experiment in a line: microbe, parasite or virus in culture. The settings on record: Hepatitis C virus.
A short description of a further series: in vitro. The settings on record: human.
The mark [2] stands for this setting: Huh-7, read-out: IC50 (uM) [SG].
[3] abbreviates: Huh-7, read-out: Max Effect @CC30 (inhibition).
The mark [4] stands for this setting: Huh-7, read-out: Max Effect@CC30 (inhibition).

With `CNc1ccc(Oc2ccc(SC)c(C)c2)c(CN(C)C)c1` [Compound 25, 3-((dimethylamino)methyl)-N-methyl-4-(3-methyl-4-(methylthio)phenoxy)aniline], the IC50 in series [1] (setting [2]) amounted to 20 µM. In addition, in the series “in vitro” (CC50 (uM) [SG]), the CC50 worked out at 46.9 µM.

As for `CN[C@H]1CC[C@@H](c2ccc(Cl)c(Cl)c2)c2ccc(NC(C)=O)cc21` [Sertraline A-Ring Reverse Carboxamide, N-((5S,8S)-5-(3,4-dichlorophenyl)-8-(methylamino)-5,6,7,8-tetrahydronaphthalen-2-yl)acetamide], the IC50 in series [1] (Huh-7) is 0.85 µM; in series [1] (setting [2]) it was 0.91 ± 0.08 µM; in series [1] (Huh-7, read-out: SA IC50 (uM)) it was 0.91 ± 0.08 µM. Further, in series [1] (Huh-7), the IC90 amounted to 7.26 µM. In addition, the Emax in series [1] (setting [3]) amounted to 87.7%; in series [1] (setting [4]), 83 ± 6.55%; in series [1] (Huh-7, read-out: Max effect @CC30 (%)) it was 83 ± 6.55%. For the same molecule, the CC50 in the series “in vitro” (CC50 (uM)) was found to be 10.7 µM; in “in vitro” (CC50 (uM) [SG]), 12 ± 1.77 µM.

As to `CN[C@H]1CC[C@@H](c2ccc(Cl)c(Cl)c2)c2ccc(C(=O)NCC(=O)OC)cc21` [methyl 2-((1S,4S)-1-(3,4-dichlorophenyl)-4-(methylamino)-1,2,3,4-tetrahydronaphthalene-6-carboxamido)acetate], the IC50 in series [1] (setting [2]) is 6.69 µM. This molecule also yielded a CC50 in “in vitro” (CC50 (uM) [SG]) of 22.9 µM.

Regarding `CSc1ccc(Oc2ccc(S(N)(=O)=O)cc2CN2C[C@@H](O)C[C@@H]2CO)cc1C` [Compound 110, 3-(((2S,4R)-4-hydroxy-2-(hydroxymethyl)pyrrolidin-1-yl)methyl)-4-((3-methyl-4-methylthio)phenoxy)benzenesulfonamide], the IC50 in series [1] (setting [2]) came out at 13.1 µM. Moreover, the CC50 in “in vitro” (CC50 (uM) [SG]) is more than 50 µM.

In the case of `COC[C@@H]1CCCN1Cc1cc(S(N)(=O)=O)ccc1Oc1ccc(SC)c(C)c1` [Compound 104, (S)-3-((2-(methoxymethyl)pyrrolidin-1-yl)methyl)-4-(3-methyl-4-(methylthio)phenoxy)benzenesulfonamide], the IC50 in series [1] (setting [2]) worked out at 27.8 µM. Also, the CC50 in “in vitro” (CC50 (uM) [SG]) was more than 50 µM.

`CSc1ccc(Oc2ccc([N+](=O)[O-])cc2CN(C)C)cc1C` [Compound 54, N,N-dimethyl-1-(2-(3-methyl-4-(methylthio)phenoxy)-5-nitrophenyl)methanamine] had an IC90 in series [1] (Huh-7) of 7.07 µM. Besides, the IC50 in series [1] (setting [2]) came out at 6.18 µM. Moreover, the Emax in series [1] (setting [4]) stood at 97.9%. The molecule also came in with a CC50 in “in vitro” (CC50 (uM) [SG]) of more than 50 µM.

Take `CSc1ccc(Oc2ccccc2CN(C)C)cc1C` [Compound 8, N,N-dimethyl-1-(2-(3-methyl-4-(methylthio)phenoxy)phenyl)methanamine]: the IC50 in series [1] (setting [2]) stood at 12.2 µM. In series [1] (setting [4]), the Emax came out at 52.3%. Also, the CC50 in the series “in vitro” (CC50 (uM) [SG]) was 36 µM.

Consider `CSc1ccc(Oc2ccc(C(N)=O)cc2CN(C)C)cc1C` [Compound 10, 3-((dimethylamino)methyl)-4-(3-methyl-4-(methylthio)phenoxy)benzamide], for which the IC50 in series [1] (setting [2]) is 26.9 µM. Also, in series [1] (setting [4]), the Emax turned out to be 80.7%. In “in vitro” (CC50 (uM) [SG]), the CC50 is more than 50 µM.

For `CSc1ccc(Oc2ccc(S(N)(=O)=O)cc2CN(C)C)cc1` [Compound 46, 3-((dimethylamino)methyl)-4-(4-(methylthio)phenoxy)benzenesulfonamide], the IC50 in series [1] (Huh-7) and in series [1] (setting [2]) was 26.3 µM throughout. Also, the 90% effect concentration (IC90) in series [1] (Huh-7) stood at 60.9 µM. The Emax in series [1] (setting [3]) and in series [1] (setting [4]) was 83.2% throughout. Further, the CC50 in the series “in vitro” (CC50 (uM)) and in the series “in vitro” (CC50 (uM) [SG]) was more than 50 µM each time.

With `CN(C)[C@H]1CC[C@@H](c2ccc(Cl)c(Cl)c2)c2ccc(NC(=O)c3ccccc3)cc21` [N-((5S,8S)-5-(3,4-dichlorophenyl)-8-(dimethylamino)-5,6,7,8-tetrahydronaphthalen-2-yl)benzamide], the IC50 in series [1] (setting [2]) amounted to 9.41 µM. In addition, in the series “in vitro” (CC50 (uM) [SG]), the CC50 was found to be 12.5 µM.

As for `CNC(=O)c1cc(S(N)(=O)=O)ccc1Oc1ccc(SC)c(C)c1` [Compound 45, N-methyl-2-(3-methyl-4-(methylthio)phenoxy)-5-sulfamoylbenzamide], in series [1] (setting [4]), the Emax was found to be 10.3%. The same molecule yielded a CC50 in “in vitro” (CC50 (uM)) of more than 50 µM.

Take `CSc1ccc(Oc2ccc(S(N)(=O)=O)cc2CN2CCN(c3ccncc3)CC2)cc1C` [Compound 91, 4-(3-methyl-4-(methylthio)phenoxy)-3-((4-(pyridin-4-yl)piperazin-1-yl)methyl)benzenesulfonamide]: the IC50 in series [1] (setting [2]) amounted to 4.91 µM. Further, the CC50 in “in vitro” (CC50 (uM) [SG]) stood at 9.86 µM.

As to `CNCc1ccccc1Oc1ccc(Br)cc1` [Compound 32], in series [1] (setting [2]), the IC50 was determined as 31.2 µM. Besides, the Emax in series [1] (setting [4]) stood at 30%. The molecule also showed a CC50 in the series “in vitro” (CC50 (uM) [SG]) of more than 50 µM.

For `CNC(=O)c1ccc2c(c1)[C@@H](NC)CC[C@H]2c1ccc(Cl)c(Cl)c1` [Sertraline A-Ring Methyl Carboxamide, (5S,8S)-5-(3,4-dichlorophenyl)-N-methyl-8-(methylamino)-5,6,7,8-tetrahydronaphthalene-2-carboxamide], the IC50 in series [1] (setting [2]) came out at 2.82 µM. For the same molecule, the Emax in series [1] (setting [4]) came to 81.2%. The molecule further showed a CC50 in the series “in vitro” (CC50 (uM) [SG]) of 11.1 µM.

On to `CSc1ccc(Oc2cc(C#N)ccc2CN(C)C)cc1C` [Compound 64, 4-((dimethylamino)methyl)-3-(3-methyl-4-(methylthio)phenoxy)benzonitrile], for which the IC50 in series [1] (setting [2]) was determined as 22.5 µM. This molecule also had a CC50 in the series “in vitro” (CC50 (uM) [SG]) of more than 50 µM.

Take `CN[C@H]1CC[C@@H](c2ccc(Cl)c(Cl)c2)c2ccc(C(N)=O)cc21` [Sertraline A ring carboxamide, (5S,8S)-5-(3,4-dichlorophenyl)-8-(methylamino)-5,6,7,8-tetrahydronaphthalene-2-carboxamide]: in series [1] (setting [2]), the IC50 stood at 1.8 µM. The molecule further had a CC50 in “in vitro” (CC50 (uM) [SG]) of 16.2 µM.

For the molecule `CNS(=O)(=O)c1ccc(Oc2ccc(SC)c(C)c2)c(CN(C)C)c1` [Compound 6, 3-((dimethylamino)methyl)-N-methyl-4-(3-methyl-4-(methylthio)phenoxy)benzenesulfonamide], the IC90 in series [1] (Huh-7) came out at 14.8 µM. The IC50 in series [1] (setting [2]) stood at 5.8 µM. In addition, in series [1] (setting [4]), the Emax stood at 93.2%. In addition, the CC50 in the series “in vitro” (CC50 (uM) [SG]) stood at 45.3 µM.

For the molecule `CSc1ccc(Oc2ccc(S(N)(=O)=O)cc2C=C(C)C)cc1C` [Compound 86, 4-(3-methyl-4-(methylthio)phenoxy)-3-(2-methylprop-1-enyl)benzenesulfonamide], the concentration for half-maximal inhibition (IC50) in series [1] (setting [2]) worked out at 34.8 µM. In addition, the CC50 in “in vitro” (CC50 (uM) [SG]) is more than 50 µM.

On to `CN[C@H]1CC[C@@H](c2ccc(Cl)c(Cl)c2)c2ccc(I)cc21` [Sertraline Iodide, (1S,4S)-4-(3,4-dichlorophenyl)-7-iodo-N-methyl-1,2,3,4-tetrahydronaphthalen-1-amine], for which the Emax in series [1] (GETYPE1B, Huh-7, 72 h, read-out: Max Effect @CC30 (inhibition)) was 25%; in series [1] (setting [4]), 25%. The IC50 stood at 6.57 µM in series [1] (Huh-7, 72 h) and 6.57 µM in series [1] (setting [2]). The CC50 in “in vitro” (CC50 (uM)) and in the series “in vitro” (CC50 (uM) [SG]) was 8.92 µM in each case.

In the case of `CSc1ccc(Oc2ccc(S(N)(=O)=O)cc2CN2CCN(CCO)CC2)cc1C` [Compound 95, 3-((4-(2-hydroxyethyl)piperazin-1-yl)methyl)-4-(3-methyl-4-(methylthio)phenoxy)benzenesulfonamide], in series [1] (Huh-7), the IC90 turned out to be 17 µM. Besides, the IC50 in series [1] (setting [2]) worked out at 6.5 µM. Also, the CC50 in the series “in vitro” (CC50 (uM) [SG]) was more than 50 µM.

In the case of `CSc1cc(S(N)(=O)=O)c(Oc2cc(Br)ccc2CN(C)C)cc1C` [Compound 72, 2-(5-bromo-2-((dimethylamino)methyl)phenoxy)-4-methyl-5-(methylthio)benzenesulfonamide], the IC50 in series [1] (setting [2]) is 16.3 µM. In addition, the CC50 in the series “in vitro” (CC50 (uM) [SG]) came out at 45 µM.

Molecule `CNCc1cc(S(N)(=O)=O)ccc1Oc1ccc(C)c(C)c1` [Compound 84, 4-(3,4-dimethylphenoxy)-3-((methylamino)methyl)benzenesulfonamide] registered an IC90 in series [1] (Huh-7) of 39.6 µM. Besides, the IC50 in series [1] (setting [2]) worked out at 28.1 µM. In addition, the CC50 in “in vitro” (CC50 (uM) [SG]) is 46.7 µM.
